Data published in patent US20240317748A1, “CARBONYL SUBSTITUTED DIAZASPIRO COMPOUNDS AND ITS USE” (BIONOVA PHARMACEUTICALS (SHANGHAI) LIMITED, priority 2021, published 2024).

Key:
MV-4-11 cells = assay: Cell proliferation assay (CellTiter-Glo), MV-4-11; type: cell-based, human; details: Homo sapiens, MV4-11, 96 h; MV-4-11 (MLL-AF4), 4 days incubation; read-out: Cell antiproliferation assay MV-4-11 IC50
Summary of the method: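 Antiproliferative activity by CellTiter-Glo luminescence; MV4-11 (MLL-AF4) in IMDM/10% FBS, 4 days; MOLM13 (MLL-AF9) in RPMI1640/20% FBS, 12 days; OCI-AML3 (NPM1c) in RPMI1640/20% FBS, 5 days; HL-60 (MLL wild-type control) in IMDM/20% FBS, 4 days. Compounds 4-fold serial from 2 mM stock, 200-fold final dilution; 37 °C, 5% CO2.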

Menin-MLL1 = molecular target: T1, Menin-MLL1 (Homo sapiens, UniProt O00255); assay: Menin-MLL1 inhibition assay (fluorescence polarization, Menin protein + FAM-MLL peptide); type: binding; details: Menin (2-610) isoform 2, FAM-labelled MLL peptide, mP readout; read-out: Biochemical assay Menin-MLL1 IC50
T1 construct: Menin (2-610) isform2; purchased ChemPartner 2020111101
T1 sequence (O00255 2-610): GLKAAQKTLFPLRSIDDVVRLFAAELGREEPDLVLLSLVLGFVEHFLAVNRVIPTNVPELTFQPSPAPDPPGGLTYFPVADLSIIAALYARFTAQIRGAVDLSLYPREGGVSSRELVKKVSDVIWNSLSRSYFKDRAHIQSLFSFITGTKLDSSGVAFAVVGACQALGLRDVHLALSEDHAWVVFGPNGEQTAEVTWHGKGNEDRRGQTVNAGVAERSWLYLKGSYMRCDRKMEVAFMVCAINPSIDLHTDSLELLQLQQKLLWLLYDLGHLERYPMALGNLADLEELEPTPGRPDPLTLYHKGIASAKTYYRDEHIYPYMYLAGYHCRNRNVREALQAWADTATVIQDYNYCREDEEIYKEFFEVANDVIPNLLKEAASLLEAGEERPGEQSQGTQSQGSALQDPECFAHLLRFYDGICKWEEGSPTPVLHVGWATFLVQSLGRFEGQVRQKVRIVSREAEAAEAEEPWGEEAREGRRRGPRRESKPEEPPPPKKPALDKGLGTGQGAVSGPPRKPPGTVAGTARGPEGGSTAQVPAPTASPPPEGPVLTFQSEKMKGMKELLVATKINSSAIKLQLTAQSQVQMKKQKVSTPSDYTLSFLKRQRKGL

[1] = Liver microsome stability study; type: in vitro ADME; details: human liver microsomes 0.5 mg/mL, 1 μM compound, NADPH, 37° C.; read-out: Human liver microsome T1/2
Method: Studies were carried out in liver microsomes (Corning, 0.5 mg/mL). Stock solutions were prepared at 10 mM in DMSO for the test compounds. Aliquots of the stock solutions were diluted to 0.5 mM with acetonitrile, and then further diluted upon the addition of liver microsomes/buffer to 1.5 μM. An aliquot of 30 μL of 1.5 μM solutions was mixed with 15 μL of 6 mM NADPH and the final concentration of NADPH was 2 mM, which had been pre-warmed to 37° C. Test compounds and Ketanserin final concentrations were 1 μM. The plates were kept in a 37° C. water bath for the duration of the experiment. At each time point (0, 5, 15, 30, 45 minutes), 135 μL of acetonitrile was added into corresponding wells. After the final time point was quenched by acetonitrile, the assay plates were shaken at the vibrator (IKA, MTS 2/4) for 10 min (600 rpm/min) and then centrifuged at 5,594 g for 15 min (Thermo Multifuge×3R). Aliquots of the supernatant were taken, diluted 1:1 into distilled water, and analyzed by LC-MS/MS. The peak area response ratio to internal standard (PARR) of the compounds at 5, 15, 30, 45 minutes was compared to the PARR at time 0 to determine the percent of test compound remaining at each time point. Half-lives were calculated using Excel software, fitting to a single-phase exponential decay equation.

HL-60 cells = assay: Cell proliferation assay (CellTiter-Glo), HL-60 control line; type: cell-based, human; details: Homo sapiens, 96 h, 4 days incubation; for IC50: HL-60 control line (MLL wildtype), read-out: Cell antiproliferation assay HL-60 IC50; for inhibition at 10 µM: HL-60 control line, read-out: HL-60 (Pct of inhibition at 10 μM)
Method: (§1) The antiproliferative activity of test compounds was assessed in human leukemia cell lines. The cell line MV4-11, MOLM13 and OCI-AML3, which expresses the MLL fusion protein MLL-AF4, MLL-AF9 and carry the NPM1c gene mutation, respectively, were tested. HL-60 was used as a control cell line containing two MLL wildtype alleles in order to exclude compounds that display general cytotoxic effect. MV4-11 cells were cultured in IMDM supplemented with 10% FBS, MOLM13 and OCI-AML3 cells were cultured in RPMI1640 supplemented with 20% FBS, and HL-60 cells were cultured in IMDM supplemented with 20% FBS. Corresponding cells (MV4-11, MOLM13, OCI-AML3 or HL-60 cell line) were seeded in 100 uL medium per well in 96-well plate (white wall with clear bottom, tissue culture treated, Corning, Cat. No. CLS3903; Lot.No. 30419025). Plates were placed in the CO2 incubator overnight. Compounds solution (2 mM starting, 4-fold serial dilution) were prepared and added to the wells containing 100 μL of the culture medium with HPD300 according to the plate map and centrifuge at 1000 rpm for 1 minutes (200-fold dilution totally). MV4-11, MOLM13, OCI-AML3 and HL-60 cells were incubated with the compounds for 4, 12, 5 and 4 days, respectively, under 5% CO2 at 37° C., respectively. 100 μL of CellTiter-Glo reagent (Promega, Cat. No. G7573, Lot. No. 0000416710) was added to the assay plate by Multidrop Combi instrument, contents were mixed for 10 minutes on an orbital shaker to induce cell lysis. After incubation at room temperature for 10 mins, clear bottom with white back seal was pasted and luminescence with Envision was read.

hERG potassium channel = molecular target: T2, hERG potassium channel (Homo sapiens, UniProt Q12809); assay: hERG inhibition study (Qpatch, CHO-hERG cells); type: cell-based; details: highest test concentration 40 μM
T2 construct: expressed in transfected cells; host or cells: CHO-hERG cells
T2 sequence (Q12809 whole entry): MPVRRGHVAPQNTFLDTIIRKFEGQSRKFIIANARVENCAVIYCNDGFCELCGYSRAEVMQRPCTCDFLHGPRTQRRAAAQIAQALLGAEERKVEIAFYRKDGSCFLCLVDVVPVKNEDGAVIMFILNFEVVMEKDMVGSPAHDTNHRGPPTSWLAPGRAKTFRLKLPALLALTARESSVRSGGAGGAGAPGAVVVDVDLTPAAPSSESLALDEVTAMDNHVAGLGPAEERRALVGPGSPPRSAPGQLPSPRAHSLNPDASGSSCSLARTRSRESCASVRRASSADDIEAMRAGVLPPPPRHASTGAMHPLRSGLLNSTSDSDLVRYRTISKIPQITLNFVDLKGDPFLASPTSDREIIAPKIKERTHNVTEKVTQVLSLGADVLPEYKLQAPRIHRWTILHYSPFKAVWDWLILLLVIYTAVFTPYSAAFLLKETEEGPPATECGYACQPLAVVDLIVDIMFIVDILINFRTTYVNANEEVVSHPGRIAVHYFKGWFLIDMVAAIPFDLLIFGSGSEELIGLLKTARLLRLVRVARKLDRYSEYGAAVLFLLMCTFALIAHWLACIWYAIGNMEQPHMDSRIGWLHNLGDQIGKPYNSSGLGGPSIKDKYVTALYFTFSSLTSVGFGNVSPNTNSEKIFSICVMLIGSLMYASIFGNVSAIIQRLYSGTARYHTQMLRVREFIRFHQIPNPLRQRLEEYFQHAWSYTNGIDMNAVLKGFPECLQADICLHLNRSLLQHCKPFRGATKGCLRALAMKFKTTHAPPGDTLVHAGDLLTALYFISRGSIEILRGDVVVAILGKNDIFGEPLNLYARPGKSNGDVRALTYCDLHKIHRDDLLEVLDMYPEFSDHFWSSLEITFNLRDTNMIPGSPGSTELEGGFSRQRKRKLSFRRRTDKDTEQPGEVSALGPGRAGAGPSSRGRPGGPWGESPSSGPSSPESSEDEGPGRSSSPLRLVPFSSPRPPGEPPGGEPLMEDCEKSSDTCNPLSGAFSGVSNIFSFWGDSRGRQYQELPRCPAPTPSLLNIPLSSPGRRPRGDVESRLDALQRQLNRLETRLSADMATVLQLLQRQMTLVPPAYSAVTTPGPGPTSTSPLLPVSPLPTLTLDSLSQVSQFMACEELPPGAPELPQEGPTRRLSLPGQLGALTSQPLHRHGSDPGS
Method: The inhibition effects of the test compounds on hERG were carried out in CHO-hERG cells (cell density: 21.5×10˜6/mL). 10 μL compound mother liquor was added to 20 μL DMSO solution, and then continuously diluted to 6 concentrations by 3-fold. The compound solution (4 uL) of six different concentrations were added to the extracellular solution (996 uL) and diluted to the final concentration to be tested (250-fold dilution totally). The highest test concentration was 40.00 μM, followed by […], 13.3, 4.4, 1.48, 0.49 and 0.16 μM. […] The high impedance sealing of single cell and the formation of whole cell model were all completed automatically by Qpatch instrument.

MOLM13 cells = assay: Cell proliferation assay (CellTiter-Glo), MOLM13; type: cell-based, human; details: Homo sapiens, MOLM-13, 288 h; MOLM13 (MLL-AF9), 12 days incubation; read-out: Cell antiproliferation assay MOLM13 IC50
Method: as §1

OCI-AML3 cells = assay: Cell proliferation assay (CellTiter-Glo), OCI-AML3; type: cell-based, human; details: Homo sapiens, OCI-AML-3, 120 h; OCI-AML3 (NPM1c mutation), 5 days incubation; read-out: Cell antiproliferation assay OCI-AML3 IC50
Method: as §1

Structure (SMILES)	IC50 (MV-4-11 cells)	IC50 (Menin-MLL1)	half-life at 1 μM [1]	IC50 (HL-60 cells)	IC50 (MOLM13 cells)	IC50 (OCI-AML3 cells)	inhibition at 10 µM (HL-60 cells)	IC50 (hERG potassium channel)
CCN(C(=O)c1cc(F)ccc1Oc1nncnc1N1CC2(CCN(C(=O)[C@@H]3C[C@@H](F)CN3)CC2)C1)C(C)C [Example 39, N-ethyl-5-fluoro-2-[(5-{7-[(2S,4R)-4-fluoropyrrolidine-2-carbonyl]-2,7-diazaspiro [3.5]nonan-2-yl}-1,2,4-triazin-6-yl)oxy]-N-(propan-2-yl) benzamide]	43 nM	4.2 nM	1.57 h	> 10000 nM			-24.9%	
C[C@H]1CCN[C@@H]1C(=O)N1CCC2(CC1)CN(c1ncnnc1Oc1ccc(F)cc1-c1cncnc1C1CC1)C2 [Example 77]	17.3 nM	3.4 nM	1.35 h	> 10000 nM			17.5%	> 40000 nM
O=C([C@@H]1C[C@@H](F)CN1)N1CCC2(CC1)CN(c1ncnnc1Oc1ccc(F)cc1-c1cncnc1C1CC1)C2 [Example 62]	39.5 nM	3.4 nM	1.43 h	> 10000 nM			-9.1%	
CCN(C(=O)c1cc(F)ccc1Oc1nncnc1N1CC2(CCN(C(=O)[C@H]3NC[C@H]4[C@@H]3C4(C)C)CC2)C1)C(C)C (stereo in doubt) [Example 68]	13.8 nM	4.1 nM		> 10000 nM	46.1 nM	68.3 nM	14.1%	> 40000 nM
CCN(C(=O)c1cc(F)ccc1Oc1nncnc1N1CC2(CCN(C(=O)[C@H]3NCCC3(C)C)CC2)C1)C(C)C [Example 65]	15.1 nM	3.1 nM	1.12 h	> 10000 nM	57 nM		-3.7%	
C[C@H]1CN[C@H](C(=O)N2CCC3(CC2)CN(c2ncnnc2Oc2ccc(F)cc2-c2cncnc2C2CC2)C3)C1 [Example 72]	56.3 nM	5.5 nM	2.63 h					
CCN(C(=O)c1cc(F)ccc1Oc1cncnc1N1CC2(CCN(C(=O)[C@@H]3C[C@@H](F)CN3)CC2)C1)C(C)C [Example 2, N-ethyl-5-fluoro-2-[(4-{7-[(2S,4R)-4-fluoropyrrolidine-2-carbonyl]-2,7-diazaspiro[3.5]nonan-2-yl}pyrimidin-5-yl)oxy]-N-(propan-2-yl)benzamide]	20.3 nM	4.3 nM		> 10000 nM	62.4 nM	102 nM	-30.1%	> 40000 nM
CCN(C(=O)c1cc(F)ccc1Oc1cncnc1N1CC2(CN(C(=O)[C@@H]3C[C@@H](F)CN3)C2)C1)C(C)C [Example 38]	69 nM	3.3 nM	1 h					

Continued by falling IC50 (MV-4-11 cells), values first:

IC50 (MV-4-11 cells)	IC50 (Menin-MLL1)	half-life at 1 μM [1]	IC50 (HL-60 cells)	IC50 (MOLM13 cells)	IC50 (OCI-AML3 cells)	Structure (SMILES)	inhibition at 10 µM (HL-60 cells)	IC50 (hERG potassium channel)
134 nM	4.9 nM	1.53 h				CCN(C(=O)c1cc(F)ccc1Oc1cncnc1N1CC2(CCN(C(=O)[C@]3(C)CCCN3)CC2)C1)C(C)C [Example 22]		
56.4 nM	4.4 nM	2.57 h				C[C@@H]1CCN[C@@H]1C(=O)N1CCC2(CC1)CN(c1ncnnc1Oc1ccc(F)cc1-c1cncnc1C1CC1)C2 [Example 69]		
41.6 nM	4.9 nM	1.1 h				CCN(C(=O)c1cc(F)ccc1Oc1nncnc1N1CC2(CCN(C(=O)[C@@H]3C[C@H](C)CN3)CC2)C1)C(C)C [Example 87]		
40.1 nM	4.5 nM	1.98 h	> 10000 nM			CCN(C(=O)c1cc(F)ccc1Oc1nncnc1N1CC2(CCN(C(=O)[C@@H]3C[C@@H](C)CN3)CC2)C1)C(C)C [Example 60]	-8.4%	> 40000 nM
20 nM	5.1 nM	1.13 h	> 10000 nM	60.9 nM	67.1 nM	CCN(C(=O)c1cc(F)ccc1Oc1nncnc1N1CC2(CCN(C(=O)[C@H]3NCC[C@@H]3OC)CC2)C1)C(C)C [Example 84]	15.1%	
5.6 nM	4.6 nM		> 10000 nM	14.9 nM	30.9 nM	CCN(C(=O)c1cc(F)ccc1Oc1nncnc1N1CC2(CCN(C(=O)[C@H]3NC[C@@H]4CCC[C@@H]43)CC2)C1)C(C)C [Example 74]	7.9%	> 40000 nM
5.6 nM	4.2 nM		> 10000 nM	12.3 nM	11.2 nM	O=C([C@H]1NC[C@@H]2CCC[C@@H]21)N1CCC2(CC1)CN(c1ncnnc1Oc1ccc(F)cc1-c1cncnc1C1CC1)C2 [Example 82]	22.3%	29400 nM
